{"source": "patent US12478677B2", "about": "“Tunable luminescent organic salts for enhanced imaging and photodynamic therapy” (BOARD OF TRUSTEES OF MICHIGAN STATE UNIVERSITY, priority 2017, dated 2025)", "key": {"A549 cells": {"test_system": "A549 cells", "assay": "Luminescent imaging of cells", "format": "cell-based, human", "description": "Images are obtained using a Leica DMi8 microscope with a PE4000 LED light source, DFC9000GT camera, and LAS X imaging system. A549 cells are seeded in 3 cm tissue culture plates at a density of 50,000 cells per well in DMEM media containing luminescent organic salts at indicated concentrations. The cells incubate for 2 days at 37° C. with 5% CO2 until the day of imaging. For live cell imaging, the media is aspirated and replaced with fresh dye-free media to reduce background noise. For fixed cell imaging, cells are grown on 0.5 mm coverslips within 3 cm plates. The media is aspirated and the cells are washed with phosphate buffered saline (PBS) before being submerged in cold methanol and incubated at −20° C. for 15 minutes. The cells are then washed with PBS 5 times, and the coverslips are then mounted to slides using DAPI with Fluoromount-G."}, "[1]": {"assay": "Nanoparticle aggregation size from SEM images", "format": "physicochemical", "conditions": "no observable precipitation", "description": "FIG. 6. is a graph showing exemplary nanoparticle aggregation size distribution measured from SEM images (inset, scale bar=100 nm) of CyTPFB. Average aggregate size is 5.6±1.8 nm with no observable precipitation. […] This is achieved by cation-anion pairs of luminescent organic salts that can be modulated to be either non-toxic for enhanced imaging, or phototoxic for improved PDT. […] IR polymethine cyanine dyes, which have been used as effective theranostics are described. […] This is thought to occur through a mechanism mitigated by tumor vascularization, increased retention in cancer cells, and mitochondrial depolarization. Once in the cell, they accumulate in the mitochondria and lysosomes, where irradiation induces generation of cytotoxic oxygen species. A strategy is described for preventing or inhibiting salt dissociation in cells: aggregates are formed via introduction of the salt into an aqueous media by a solvent vehicle, forming particles with diameters of about 5 nm in size with no precipitation observed. […] This is confirmed by high resolution mass spectrometry, electron microscopy, and UV-Vis spectroscopy. […] Normalized absorption data are sown in FIGS. 7A, 7B, and 7C. This is likely due to steric effects, where if the counterion radius is too small it is not able to protect the nanoparticle stability. […]"}}}
{"smiles": "CCN1C(=CC=C2CCCC(C=CC3=[N+](CC)c4ccc5ccccc5c4C3(C)C)=C2Cl)C(C)(C)c2c1ccc1ccccc21.Fc1c(F)c(F)c([B-](c2c(F)c(F)c(F)c(F)c2F)(c2c(F)c(F)c(F)c(F)c2F)c2c(F)c(F)c(F)c(F)c2F)c(F)c1F", "note": "[CyTPFB]", "values": [{"measurement": "Cellular localization versus concentration in media, in words", "setting": "A549 cells", "value": "localize inside cells proportionally to the initial introduced concentration in the cellular media"}, {"measurement": "Average aggregate size", "setting": "[1]", "value": "5.6±1.8", "unit": "nm"}]}
